Data as given in US20250163119A1, “COMPOUNDS FOR THE TREATMENT OF DIABETES OR OBESITY” (Eli Lilly and Company, priority 2023, published 2025).
Where “and” joins values, the source holds several entries; their conditions need not be identical. Identical values can stand only once. Like-named read-outs stand apart in the source and are kept apart here. *1 amine or outer side, *2 acyl side, *3 side chain or, on linkers, in order; H or OH if unused. Side-chain parts run from the residue outwards. [ ]: non-standard residue; d: D form. The star is where a group is joined. C20 diacid = O=C(O)CCCCCCCCCCCCCCCCCCC(=O)*; γGlu = O=C(O)[C@H](CCC(=O)[*:2])N[*:1]; εLys = N[C@@H](CCCCN[*:1])C(=O)[*:2]; αMeL = CC(C)C[C@](C)(N)C(=O)O; AEEA = NCCOCCOCC(=O)O; Aib = CC(C)(N)C(=O)O

What was measured:
[1] = tested on: MHC-II presented peptides on human dendritic cells; assay: MAPPS assay (MHC-Associated Peptide Proteomics); format: cell-based
Method in brief: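 CD14+ monocytes from healthy donor PBMCs were differentiated to immature DCs with IL-4/GM-CSF, exposed to test molecules on day 4 and matured with LPS on day 5. On day 6, MHC-II complexes were immunoprecipitated and eluted peptides identified by mass spectrometry; value is percentage of donors presenting peptides from each region.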

[2] = tested on: CD4+ T cells; assay: T cell proliferation assay; format: cell-based, human; conditions: responding donors / donors tested
Procedure: This assay assessed the ability of tested antibodies or tested MAPPS peptides to activate CD4+ T cells by inducing cellular proliferation. CD8+ T cell depleted PBMC's were prepared and labeled with CFSE. Each sample was tested with media control, keyhole limpet haemocyanin (KLH; positive clinical benchmark control), tested antibodies, or tested MAPPS peptides. Cultures were incubated for 7 days. On day 7, samples were analyzed by flow cytometry.

[3] = Pharmacokinetics in Yucatan mini-pigs, single subcutaneous or intravenous dose; format: in vivo; conditions: for Tmax: read-out: Tmax
Procedure: Plasma concentrations of compounds were determined by LC/MS methods. For each assay, the compound and an internal standard (IS), were extracted from 100% mouse, rat, pig, or monkey plasma (70 μL) using Isopropanol-Methanol. Two distinct layers were formed upon centrifugation with the compound and the IS located in the supernatant layer. An aliquot of the supernatant (150 μL) was transferred to a Waters Sirocco Protein Precipitation Plate. The supernatant was eluted using a positive pressure manifold. The supernatant was mixed with 100-2 Water-Formic acid (400 μL) in a pretreated Sep-Pak tC18 SPE plate and eluted to waste. The peptide and IS were eluted with Acetonitrile-Formic acid (100 μL) in 2 steps (50 μL each step). The elution (40 μL) from SPE plate was mixed with diluent solution (1.875 μL 5× invitrosol and 3.125 μL 1% formic acid in water, 80 μL). A final sample (10 μl) was loaded onto a Xselect CSH C18 IS column (3.5 μm 2.1×20 mm). The column effluent was directed into a Thermo Fisher Scientific Orbitrap (Exploris 240) mass spectrometer for detection and quantitation.
Male Yucatan mini-pigs were administered a single subcutaneous dose or intravenous dose (19 or 99 nmol/kg) of compound in 40 mM Tris-HCl 5% D-mannitol (pH 8) at a volume of 0.01 or 0.05 mL/kg. Blood was collected from each animal at 0.083 (IV only), 0.5, 3, 6, 24, 48, 72, 96, 168, 240, 336, 408, and 504 hours postdose for pharmacokinetic characterization.

[4] = tested on: pre-existing antibodies (ADA) in treatment-naive normal human serum; assay: Pre-existing reactivity (ACE assay format); format: binding
Procedure: This assay assessed the presence of pre-existing antibodies (ADA) against the tested molecules in treatment-naive normal human serum (NHS). Diluted NHS was incubated overnight on a Pierce Streptavidin plate coated with biotinylated tested molecules. On the following day, the captured binding proteins were acid eluted, hard-coated to a Mesoscale (MSD) plate, and detected with a combination of biotin-labeled molecule and ruthenium-labeled streptavidin. If anti-drug antibodies were present, they would bind the labeled drug and the resulting signal was referred to as Tier 1 signal (expressed as electrochemiluminescence). […] The presence of pre-existing anti-drug antibodies was expressed as magnitude of the 90th percentile of Tier 2 inhibition. The 90th percentile of Tier 2 inhibition is a statistical tool to assess the magnitude of specificity of Tier 1 reactivity. This 90th percentile was used to rank molecules in terms of ADA risk.

[5] = Pharmacokinetics in Sprague Dawley rats, single subcutaneous or intravenous dose (incl. 10, 30, 100 nmol/kg dose response); format: in vivo; conditions: male Sprague Dawley rats, individual animal
[6] = male Yucatan pigs, single subcutaneous dose 19 nmol/kg, individual animal
[7] = male, Yucatan mini-pig, minipig, plasma, iv, 19 nmol/kg, single intravenous dose 19 nmol/kg, individual animal
[8] = male, Yucatan mini-pig, minipig, plasma, iv, 19 nmol/kg, single intravenous dose 19 nmol/kg, mean
[9] = male, Yucatan mini-pig, minipig, plasma, sc, 19 nmol/kg, single subcutaneous dose 19 nmol/kg, Mean
[10] = male, Yucatan mini-pig, minipig, plasma, sc, 19 nmol/kg, single subcutaneous dose 19 nmol/kg, individual animal
[11] = single intravenous dose 19 nmol/kg, male Yucatan pigs, individual animal
[12] = dose response, single subcutaneous dose 10 nmol/kg
[13] = dose response, single subcutaneous dose 30 nmol/kg
[14] = dose response, single subcutaneous dose 100 nmol/kg
[15] = single intravenous dose 187 nmol/kg

What does the source list for “Ac-GSPSIVTS[αMeL]DVPT[Aib][αMeL]LQKILEQERAEKARQQAK([γGlu-AEEA-εLys-C20 diacid])EAAEILAQV-NH2 [SEQ ID NO: 1, Ac-GSPSIVTS αMeL DVPT Aib αMeL LQKILEQERAEKARQQAK(γE-(2-[2-(2-Amino-ethoxy)-ethoxy]-acetyl)-ϵK-CO-(CH2)18-CO2H)EAAEILAQV-NH2]”?
MAPPS Assay >10 donors with diverse MHC ([1]; donors displaying MHC-II peptides / donors tested): 3/20; peptides displayed on MHC-II complexes ([1]; human dendritic cells from normal donors): at least one peptide cluster on MHC-II complexes in a subset of donors; immunogenicity compared with SEQ ID NO:54 ([1]; in the MAPPs assay and/or the T cell proliferation assay): substantial improvements in immunogenicity over a compound comprising SEQ ID NO:54; MAPPS Assay >10 donors with diverse MHC ([1]; percentage of donors displaying MHC-II peptides): 15%; T Cell Proliferation Assay: protein 7-10 donors with diverse MHC [2]: 0/9; AUC0-inf ([3]; Yucatan mini-pig, minipig, plasma, sc, male Yucatan pigs, single subcutaneous dose 19 nmol/kg, Mean, read-out: AUC0-inf): 17.8 µM·h; Cmax ([3]; Yucatan mini-pig, minipig, plasma, sc, male Yucatan pigs, single subcutaneous dose 19 nmol/kg, Mean, read-out: Cmax): 0.147 µM; AUC0-inf [3, 6]: 22.4 µM·h and 13.1 µM·h; CL/F [3, 6]: 1.46 mL/h/kg; Cmax [3, 6]: 0.171 µM and 0.122 µM; T1/2 [3, 6]: 60.2 h; clearance [3, 7]: 0.583 mL/h/kg; half-life [3, 7]: 87 h; clearance [3, 8]: 0.755 mL/h/kg; half-life [3, 8]: 71.5 h; half-life [3, 9]: 75.9 h; CL/F ([3]; male, Yucatan mini-pig, minipig, plasma, sc, 19 nmol/kg, single subcutaneous dose 19 nmol/kg, Mean, read-out: CL/F (converted)): 1.15 mL/h/kg; Tmax [3, 9]: 6 h; half-life [3, 10]: 91.6 h; CL/F ([3]; male, Yucatan mini-pig, minipig, plasma, sc, 19 nmol/kg, single subcutaneous dose 19 nmol/kg, individual animal, read-out: CL/F (converted)): 0.848 mL/h/kg; Tmax [3, 10]: 6 h; AUC0-inf ([3]; minipig, plasma, single intravenous dose 19 nmol/kg, male Yucatan pigs, mean, read-out: AUC0-inf): 26.2 µM·h; C0 ([3]; minipig, plasma, single intravenous dose 19 nmol/kg, male Yucatan pigs, mean, read-out: C0): 0.619 µM; AUC0-inf [3, 11]: 32.1 µM·h and 20.2 µM·h; C0 [3, 11]: 0.591 µM and 0.646 µM; CL [3, 11]: 0.927 mL/h/kg; T1/2 [3, 11]: 55.9 h; 90th percentile Tier 2 inhibition (pre-existing anti-drug antibodies) [4]: higher 90th percentile Tier 2 inhibition than polypeptides comprising SEQ ID NOs: 22 and 25; Pre-existing Reactivity 90th percentile T2 inhibition >50 donors ([4]; ACE assay format): 37.9%; AUC0-inf [5, 12]: 2.07 µM·h and 1.86 µM·h and 2.21 µM·h; CL/F [5, 12]: 6.10 mL/h/kg and 4.63 mL/h/kg; Cmax [5, 12]: 0.0377 µM and 0.0264 µM and 0.0385 µM; T1/2 [5, 12]: 41.7 h and 31.1 h; AUC0-inf [5, 13]: 6.42 µM·h and 6.92 µM·h and 7.69 µM·h; CL/F [5, 13]: 4.55 mL/h/kg and 4.19 mL/h/kg; Cmax [5, 13]: 0.102 µM and 0.11 µM and 0.104 µM; T1/2 [5, 13]: 37.1 h and 36.1 h; AUC0-inf [5, 14]: 18.8 µM·h and 21.1 µM·h and 20.7 µM·h; CL/F [5, 14]: 4.86 mL/h/kg and 4.91 mL/h/kg; Cmax [5, 14]: 0.348 µM and 0.332 µM and 0.321 µM; T1/2 [5, 14]: 26.0 h and 24.6 h; AUC0-inf [5, 15]: 111 µM·h and 91.9 µM·h and 77.3 µM·h; C0 [5, 15]: 5.97 µM and 6.95 µM and 2.4 µM
